ChEMBL document CHEMBL1129197, “A rapid synthesis of some 5-amino- nucleosides and nucleotides as potential antiviral compounds” (Bioorg Med Chem Lett, 1996)

Legend:
C8166 [1] = test: Compound was evaluated for inhibitory activity against HIV-1 infected C8166 cells.; type: functional, cell-based; settings: Homo sapiens
C8166 [2] = test: Concentration which reduces the viability of uninfected C8166 cells by 50%; type: functional; settings: Homo sapiens
[3] = Ratio of CC50 to EC50 against HIV-1/C8166 cells was evaluated; type: functional

Row | SMILES | EC50 (C8166 [1]) [µM] | CC50 (C8166 [2]) [µM] | Selectivity [3]
1 | Cc1cn(C2CC(N=[N+]=[N-])C(CNP(=O)(OCC(Cl)(Cl)Cl)OCC(Cl)(Cl)Cl)O2)c(=O)[nH]c1=O (centres undefined) | 30 | 100 | 3.3
2 | Cc1cn(C2CC(N=[N+]=[N-])C(CN3C(=O)c4ccccc4C3=O)O2)c(=O)[nH]c1=O (centres undefined) | 100 | 1000 | 10
3 | Cc1cn2c(nc1=O)OC1CC2OC1CN1C(=O)c2ccccc2C1=O (centres undefined) | 400 | > 1000 | >2.5
4 | Cc1cn(C2CC(N=[N+]=[N-])C(CN)O2)c(=O)[nH]c1=O (centres undefined) | 40 | > 1000 | >25
5 | Cc1cn([C@H]2C[C@H](N=[N+]=[N-])[C@@H](CO)O2)c(=O)[nH]c1=O [ZIDOVUDINE] |  | > 1000 | 62500
